The target of experiment [1] is T1, PAN2-PAN3 deadenylation complex subunit PAN3 (Homo sapiens) (UniProt Q58A45).
T1 sequence (whole entry): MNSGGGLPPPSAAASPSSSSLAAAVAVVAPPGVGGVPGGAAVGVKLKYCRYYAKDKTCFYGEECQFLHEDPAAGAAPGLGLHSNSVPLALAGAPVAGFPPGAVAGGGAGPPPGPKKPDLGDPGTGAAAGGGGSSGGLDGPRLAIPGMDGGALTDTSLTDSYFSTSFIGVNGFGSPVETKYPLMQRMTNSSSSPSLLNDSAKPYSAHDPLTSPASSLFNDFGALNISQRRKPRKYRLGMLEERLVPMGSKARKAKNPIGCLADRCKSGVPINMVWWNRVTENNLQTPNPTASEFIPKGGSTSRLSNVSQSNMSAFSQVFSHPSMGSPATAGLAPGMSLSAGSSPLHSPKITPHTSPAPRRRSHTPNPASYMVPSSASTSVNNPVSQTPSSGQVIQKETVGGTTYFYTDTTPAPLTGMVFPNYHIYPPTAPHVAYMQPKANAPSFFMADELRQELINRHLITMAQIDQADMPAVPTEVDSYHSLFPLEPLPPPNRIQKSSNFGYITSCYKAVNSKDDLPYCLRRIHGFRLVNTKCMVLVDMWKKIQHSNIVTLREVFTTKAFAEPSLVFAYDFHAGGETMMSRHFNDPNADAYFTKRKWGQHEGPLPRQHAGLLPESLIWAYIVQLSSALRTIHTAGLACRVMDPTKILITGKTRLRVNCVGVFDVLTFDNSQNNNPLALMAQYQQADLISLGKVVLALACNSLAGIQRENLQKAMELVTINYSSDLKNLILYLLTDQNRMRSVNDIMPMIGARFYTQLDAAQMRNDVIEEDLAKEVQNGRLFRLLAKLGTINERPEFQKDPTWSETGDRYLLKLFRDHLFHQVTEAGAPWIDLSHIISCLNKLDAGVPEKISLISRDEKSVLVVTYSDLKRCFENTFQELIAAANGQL
The experiment in a line: Selectivity interaction (Kinase panel (KiNativ target engagement assay in Jurkat cells)) EUB0001635a PAN3. Type of experiment: cell-based. To be noted: Selectivity number of off-targets 0.0, Selectivity number of targets 233.0, Source Knowledge https://www.sciencedirect.com/science/article/pii/S2451945619300674?via%3Dihub, at 1 µM.

In experiment [2] the target is Glycogen synthase kinase-3 alpha (Homo sapiens, UniProt P49840). Put plainly: Selectivity interaction (KinomeScan (DiscoverX)) EUB0000607a GSK3A. As to conditions: at 10 µM.
The target of experiment [3] is Serine/threonine-protein kinase PAK 2 (Homo sapiens) (UniProt Q13177). The experiment in a line: Selectivity interaction (KinomeScan (DiscoverX)) EUB0000607a PAK2. As to conditions: at 10 µM.
The target in experiment [4] is T2, Myotonin-protein kinase (Homo sapiens) (UniProt Q09013).
T2 sequence (whole entry): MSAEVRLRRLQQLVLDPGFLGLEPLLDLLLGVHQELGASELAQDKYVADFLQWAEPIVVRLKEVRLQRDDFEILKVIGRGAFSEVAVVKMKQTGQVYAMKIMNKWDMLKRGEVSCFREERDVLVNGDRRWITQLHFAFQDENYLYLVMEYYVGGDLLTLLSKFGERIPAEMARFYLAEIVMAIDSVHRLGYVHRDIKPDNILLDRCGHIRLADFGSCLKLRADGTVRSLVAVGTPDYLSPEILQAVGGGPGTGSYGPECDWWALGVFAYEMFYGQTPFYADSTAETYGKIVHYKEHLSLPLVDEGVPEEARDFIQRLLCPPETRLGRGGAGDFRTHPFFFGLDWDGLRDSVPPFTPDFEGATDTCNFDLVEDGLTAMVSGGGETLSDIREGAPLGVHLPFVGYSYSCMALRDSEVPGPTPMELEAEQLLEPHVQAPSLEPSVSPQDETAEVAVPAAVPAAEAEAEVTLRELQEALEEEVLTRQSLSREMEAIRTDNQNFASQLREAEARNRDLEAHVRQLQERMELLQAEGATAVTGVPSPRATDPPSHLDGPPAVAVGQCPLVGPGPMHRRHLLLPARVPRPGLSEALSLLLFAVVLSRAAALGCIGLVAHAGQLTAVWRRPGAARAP
The experiment in a line: Selectivity interaction (KinomeScan (DiscoverX)) EUB0000229b DMPK. As to conditions: at 10 µM.

Experiment [5] addresses Calcium/calmodulin-dependent protein kinase type II subunit gamma (Homo sapiens) (UniProt Q13555). Put plainly: Selectivity interaction (KinomeScan (DiscoverX)) EUB0000655a CAMK2G. To be noted: at 10 µM.
The target in experiment [6] is T3, Mitogen-activated protein kinase 15 (Homo sapiens) (UniProt Q8TD08).
T3 sequence (whole entry): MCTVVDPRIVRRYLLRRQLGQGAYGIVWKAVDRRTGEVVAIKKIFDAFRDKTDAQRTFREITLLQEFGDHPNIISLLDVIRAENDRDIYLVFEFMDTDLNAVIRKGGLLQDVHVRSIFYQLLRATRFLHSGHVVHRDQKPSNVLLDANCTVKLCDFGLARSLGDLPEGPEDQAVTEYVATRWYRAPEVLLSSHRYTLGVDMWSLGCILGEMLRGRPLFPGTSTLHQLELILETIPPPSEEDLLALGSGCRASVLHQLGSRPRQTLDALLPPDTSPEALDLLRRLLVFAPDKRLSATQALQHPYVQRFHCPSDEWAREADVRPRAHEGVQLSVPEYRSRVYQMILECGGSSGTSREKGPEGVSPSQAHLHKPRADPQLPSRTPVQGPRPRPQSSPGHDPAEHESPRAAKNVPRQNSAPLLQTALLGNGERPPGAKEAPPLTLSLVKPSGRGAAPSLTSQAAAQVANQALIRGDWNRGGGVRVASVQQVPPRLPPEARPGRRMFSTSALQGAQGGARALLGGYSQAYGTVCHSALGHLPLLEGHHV
Put plainly: Selectivity interaction (KinomeScan (DiscoverX)) EUB0001079a MAPK15. To be noted: at 1 µM.

In experiment [7] the target is Serine/threonine-protein kinase 10 (Homo sapiens) (UniProt O94804). The experiment in a line: Selectivity interaction (ActivX KiNativ screen (kinase selectivity in THP-1 cell lysates)) EUB0000639a STK10. As to conditions: lysate, at 1 µM. In kind it is subcellular.
For experiment [8], the target named is eIF-2-alpha kinase GCN2 (Homo sapiens) (UniProt Q9P2K8). The experiment in a line: Selectivity interaction (ActivX KiNativ screen (kinase selectivity in THP-1 cell lysates)) EUB0000639a EIF2AK4. Type of experiment: subcellular. To be noted: lysate, at 1 µM.
Experiment [9] concerns the target Activin receptor type-2B (Homo sapiens) (UniProt Q13705). As to conditions: at 10 µM.
Experiment [10] concerns the target Mitogen-activated protein kinase kinase kinase kinase 4 (Homo sapiens, UniProt O95819). The experiment in a line: Selectivity interaction (KinomeScan (DiscoverX)) EUB0000045b MAP4K4.
Experiment [11] deals with Tyrosine-protein kinase Blk (Homo sapiens) (UniProt P51451). The experiment in a line: Selectivity interaction (KinomeScan (DiscoverX)) EUB0000618a BLK. To be noted: at 10 µM.
Experiment [12] can be described thus: Selectivity interaction (KinomeScan (DiscoverX)) EUB0000618a CDPK1. As to conditions: at 10 µM.
Experiment [13] concerns the target Cyclin-dependent kinase 14 (Homo sapiens) (UniProt O94921). Put plainly: Selectivity interaction (KinomeScan (DiscoverX)) EUB0000595a CDK14. To be noted: at 10 µM.

Chain of Mitogen-activated protein kinase kinase kinase kinase 4 (O95819 2-1239 limits assumed): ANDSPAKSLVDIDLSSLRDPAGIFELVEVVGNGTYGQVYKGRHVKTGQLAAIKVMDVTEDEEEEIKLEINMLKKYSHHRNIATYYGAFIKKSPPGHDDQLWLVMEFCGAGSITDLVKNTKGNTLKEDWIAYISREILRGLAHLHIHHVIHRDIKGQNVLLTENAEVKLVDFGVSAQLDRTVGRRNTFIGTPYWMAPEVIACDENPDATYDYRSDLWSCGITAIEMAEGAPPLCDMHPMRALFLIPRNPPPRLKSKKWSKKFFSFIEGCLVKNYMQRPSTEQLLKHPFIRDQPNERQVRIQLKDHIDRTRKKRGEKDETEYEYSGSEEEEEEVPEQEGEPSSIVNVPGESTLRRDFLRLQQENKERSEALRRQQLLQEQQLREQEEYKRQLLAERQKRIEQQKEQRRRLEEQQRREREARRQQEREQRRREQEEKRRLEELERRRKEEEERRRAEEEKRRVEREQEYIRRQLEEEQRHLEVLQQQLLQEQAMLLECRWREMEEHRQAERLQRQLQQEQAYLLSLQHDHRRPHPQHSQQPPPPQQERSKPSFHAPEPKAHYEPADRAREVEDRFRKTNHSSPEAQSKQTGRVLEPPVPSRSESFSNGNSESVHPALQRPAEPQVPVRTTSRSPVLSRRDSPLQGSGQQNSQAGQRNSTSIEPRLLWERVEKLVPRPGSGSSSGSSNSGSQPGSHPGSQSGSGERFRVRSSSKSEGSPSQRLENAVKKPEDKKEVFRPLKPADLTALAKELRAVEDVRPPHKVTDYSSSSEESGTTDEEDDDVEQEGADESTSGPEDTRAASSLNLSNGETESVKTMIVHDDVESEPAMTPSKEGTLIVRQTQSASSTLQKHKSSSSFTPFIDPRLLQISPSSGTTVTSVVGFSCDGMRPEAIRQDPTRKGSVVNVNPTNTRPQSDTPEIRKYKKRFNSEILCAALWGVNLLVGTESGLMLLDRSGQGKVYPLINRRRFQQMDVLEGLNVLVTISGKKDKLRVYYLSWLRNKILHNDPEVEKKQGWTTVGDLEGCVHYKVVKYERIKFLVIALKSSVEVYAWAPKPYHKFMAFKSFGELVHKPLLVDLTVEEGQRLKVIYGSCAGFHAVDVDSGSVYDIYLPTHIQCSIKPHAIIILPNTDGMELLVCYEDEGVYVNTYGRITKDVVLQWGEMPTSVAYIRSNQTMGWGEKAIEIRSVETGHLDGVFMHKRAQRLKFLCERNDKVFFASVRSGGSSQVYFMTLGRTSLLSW
Chain of Tyrosine-protein kinase Blk (Homo sapiens) (P51451 2-505 limits assumed): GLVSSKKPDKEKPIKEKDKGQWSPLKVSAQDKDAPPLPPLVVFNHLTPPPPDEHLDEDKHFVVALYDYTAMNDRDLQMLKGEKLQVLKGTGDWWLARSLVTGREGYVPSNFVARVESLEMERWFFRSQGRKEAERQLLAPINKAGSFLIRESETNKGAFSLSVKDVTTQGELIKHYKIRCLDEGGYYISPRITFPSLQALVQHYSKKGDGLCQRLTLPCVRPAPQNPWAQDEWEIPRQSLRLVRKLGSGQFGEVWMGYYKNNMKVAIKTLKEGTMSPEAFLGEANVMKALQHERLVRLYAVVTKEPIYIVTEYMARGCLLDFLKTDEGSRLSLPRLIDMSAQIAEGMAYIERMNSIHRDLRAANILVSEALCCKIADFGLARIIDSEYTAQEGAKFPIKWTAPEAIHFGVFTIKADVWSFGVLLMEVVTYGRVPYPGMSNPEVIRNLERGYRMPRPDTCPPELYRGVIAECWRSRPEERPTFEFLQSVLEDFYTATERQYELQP
Chain of eIF-2-alpha kinase GCN2 (Homo sapiens) (Q9P2K8 whole entry): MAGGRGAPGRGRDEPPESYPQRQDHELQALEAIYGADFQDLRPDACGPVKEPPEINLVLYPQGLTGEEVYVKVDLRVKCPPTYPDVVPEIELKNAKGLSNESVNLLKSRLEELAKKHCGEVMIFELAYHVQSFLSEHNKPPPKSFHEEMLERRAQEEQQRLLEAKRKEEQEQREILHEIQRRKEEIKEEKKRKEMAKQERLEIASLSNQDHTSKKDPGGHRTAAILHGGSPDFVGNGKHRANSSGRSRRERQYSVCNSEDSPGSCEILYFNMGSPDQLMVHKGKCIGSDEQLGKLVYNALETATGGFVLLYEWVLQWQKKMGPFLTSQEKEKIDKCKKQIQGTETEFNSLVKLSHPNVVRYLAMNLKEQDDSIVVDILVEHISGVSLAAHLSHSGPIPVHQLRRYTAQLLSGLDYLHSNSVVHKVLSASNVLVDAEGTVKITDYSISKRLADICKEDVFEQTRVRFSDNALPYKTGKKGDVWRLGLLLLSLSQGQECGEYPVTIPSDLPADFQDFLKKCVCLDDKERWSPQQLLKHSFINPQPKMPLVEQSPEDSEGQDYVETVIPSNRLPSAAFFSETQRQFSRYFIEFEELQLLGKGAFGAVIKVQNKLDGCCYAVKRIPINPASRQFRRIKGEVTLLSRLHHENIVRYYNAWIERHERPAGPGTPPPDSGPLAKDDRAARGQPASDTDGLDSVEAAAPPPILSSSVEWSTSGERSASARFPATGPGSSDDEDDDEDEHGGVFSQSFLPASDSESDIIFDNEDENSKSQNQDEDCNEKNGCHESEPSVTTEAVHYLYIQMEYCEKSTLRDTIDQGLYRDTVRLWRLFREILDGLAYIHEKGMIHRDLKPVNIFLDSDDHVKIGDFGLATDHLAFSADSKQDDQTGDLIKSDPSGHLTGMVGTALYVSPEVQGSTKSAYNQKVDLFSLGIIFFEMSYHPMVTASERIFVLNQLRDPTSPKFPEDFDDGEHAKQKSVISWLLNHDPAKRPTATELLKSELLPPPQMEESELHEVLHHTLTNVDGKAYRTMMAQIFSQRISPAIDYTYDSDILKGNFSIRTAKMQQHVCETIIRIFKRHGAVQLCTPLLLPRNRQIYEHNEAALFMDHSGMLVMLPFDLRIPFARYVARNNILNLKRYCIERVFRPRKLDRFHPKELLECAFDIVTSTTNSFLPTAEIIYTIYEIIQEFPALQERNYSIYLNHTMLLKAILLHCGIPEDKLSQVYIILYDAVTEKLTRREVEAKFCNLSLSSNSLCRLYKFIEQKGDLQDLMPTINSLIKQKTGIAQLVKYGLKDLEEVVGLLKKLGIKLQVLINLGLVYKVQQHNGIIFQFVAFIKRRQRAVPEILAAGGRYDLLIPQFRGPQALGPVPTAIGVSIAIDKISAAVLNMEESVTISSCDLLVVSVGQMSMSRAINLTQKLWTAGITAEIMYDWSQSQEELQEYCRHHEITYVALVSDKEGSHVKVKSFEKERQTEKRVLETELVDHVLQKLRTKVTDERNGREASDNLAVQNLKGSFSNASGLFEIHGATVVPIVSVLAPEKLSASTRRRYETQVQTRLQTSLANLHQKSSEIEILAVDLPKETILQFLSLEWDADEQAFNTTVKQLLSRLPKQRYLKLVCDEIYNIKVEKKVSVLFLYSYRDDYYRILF
Chain of Serine/threonine-protein kinase 10 (Homo sapiens) (O94804 whole entry, looked up): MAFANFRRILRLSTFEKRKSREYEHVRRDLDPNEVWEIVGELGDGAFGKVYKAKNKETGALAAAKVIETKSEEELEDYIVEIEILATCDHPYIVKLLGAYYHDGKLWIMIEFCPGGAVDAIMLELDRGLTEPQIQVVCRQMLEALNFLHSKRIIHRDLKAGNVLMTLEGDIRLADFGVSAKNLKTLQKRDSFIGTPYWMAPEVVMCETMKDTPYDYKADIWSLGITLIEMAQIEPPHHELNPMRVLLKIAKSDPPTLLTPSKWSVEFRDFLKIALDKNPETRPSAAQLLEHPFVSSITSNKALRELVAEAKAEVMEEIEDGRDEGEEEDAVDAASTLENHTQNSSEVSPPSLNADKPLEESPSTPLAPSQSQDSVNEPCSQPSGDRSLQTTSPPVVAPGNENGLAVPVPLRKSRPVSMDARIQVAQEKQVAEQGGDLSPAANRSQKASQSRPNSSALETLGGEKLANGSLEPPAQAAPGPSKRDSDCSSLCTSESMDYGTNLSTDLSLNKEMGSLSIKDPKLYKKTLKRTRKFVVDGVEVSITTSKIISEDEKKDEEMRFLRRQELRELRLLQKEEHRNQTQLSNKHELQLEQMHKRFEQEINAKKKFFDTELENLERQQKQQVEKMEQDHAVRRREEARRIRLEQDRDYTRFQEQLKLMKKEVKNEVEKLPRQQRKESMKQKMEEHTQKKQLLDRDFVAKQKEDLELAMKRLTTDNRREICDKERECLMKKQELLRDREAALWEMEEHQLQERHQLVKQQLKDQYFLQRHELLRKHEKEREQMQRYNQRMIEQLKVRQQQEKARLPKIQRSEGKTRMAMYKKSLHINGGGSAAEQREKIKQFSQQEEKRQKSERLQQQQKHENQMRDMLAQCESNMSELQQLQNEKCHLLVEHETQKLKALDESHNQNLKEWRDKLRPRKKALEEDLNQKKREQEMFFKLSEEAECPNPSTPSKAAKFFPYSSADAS
Chain of Serine/threonine-protein kinase PAK 2 (Homo sapiens) (Q13177 whole entry): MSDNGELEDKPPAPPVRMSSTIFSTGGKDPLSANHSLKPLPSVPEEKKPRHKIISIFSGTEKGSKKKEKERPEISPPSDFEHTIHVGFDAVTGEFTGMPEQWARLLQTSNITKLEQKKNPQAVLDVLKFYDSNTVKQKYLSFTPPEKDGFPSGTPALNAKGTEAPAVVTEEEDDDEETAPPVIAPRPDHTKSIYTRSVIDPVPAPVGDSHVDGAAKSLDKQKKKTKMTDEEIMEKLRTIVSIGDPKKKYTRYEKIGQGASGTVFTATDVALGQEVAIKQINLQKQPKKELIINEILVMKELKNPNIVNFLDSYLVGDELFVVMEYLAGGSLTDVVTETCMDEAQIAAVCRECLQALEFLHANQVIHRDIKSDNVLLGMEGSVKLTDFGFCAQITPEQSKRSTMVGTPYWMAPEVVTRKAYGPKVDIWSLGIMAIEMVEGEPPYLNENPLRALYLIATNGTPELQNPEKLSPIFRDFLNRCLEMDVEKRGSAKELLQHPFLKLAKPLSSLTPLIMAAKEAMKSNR

As for `C=CC(=O)Nc1ccc(C(=O)Nc2[nH]nc3c2CN(C(=O)N[C@H](CN(C)C)c2ccccc2)C3(C)C)cc1`, the % of engagement in [1] was -3.3%.

For the compound `CNC(=O)Nc1ccc(-c2nc(N3CC4CCC(C3)O4)c3cnn(C4CCC5(CC4)OCCO5)c3n2)cc1`, the % of control in experiment [2] turned out to be 82%; in experiment [3] it was 99%.

Regarding `COc1cc(N(C)c2ccnc3ccc(C(F)(F)F)cc23)cc(OC)c1OC`, in experiment [4], the % binding came to 87%.

Take `CN(C)CCOc1ccc(-c2nc(-c3ccncc3)c(-c3ccc4c(c3)CC/C4=N\O)[nH]2)cc1`: the % of control in [5] turned out to be 94%.

Take `Nc1cnc(N2CCc3cc(S(=O)(=O)Nc4c(F)cc(Cl)cc4F)cc(N4CCCC4=O)c32)nc1` [TP-020n]: the % of control in experiment [6] worked out at 84%.

For the compound `CC[C@@H]1[C@H](F)C(=O)N[C@@H]1COc1nccc2cc(C(N)=O)c(OC)cc12` [ZIMLOVISERTIB], the % of inhibition in experiment [7] was -16.6%; in experiment [8], 3.6%.

Compound `CCN(CC)CCCCNc1ncc2cc(-c3cc(OC)cc(OC)c3)c(NC(=O)NC(C)(C)C)nc2n1` yielded a % of control in experiment [9] of 100%.

Consider `C=CC(=O)Nc1cc(-n2c(=O)ccc3cnc4ccc(-c5ccc(NS(C)(=O)=O)cc5)cc4c32)ccc1C`, for which the % of control in experiment [10] (at 1 µM) and in [10] (at 10 µM) was 100% in each case.

Take `O[C@H]1CC[C@H](Nc2ncc3nc(Nc4c(F)cc(F)cc4F)n([C@H]4CCOC4)c3n2)CC1`: the % of control in [11] turned out to be 98%; in experiment [12], 1.5%.

`COCC(=O)NC/C=C/c1ccc2ncnc(Nc3ccc(Oc4ccc(C)nc4)c(C)c3)c2c1` [CP-724714]: in experiment [13], the % of control came to 100%.

Source of the values: ChEMBL document CHEMBL5465560, “Selectivity Literature for EUbOPEN Chemogenomic Library” (2024).
